Results reported in patent US20190142744A1, “NUCLEIC ACID NANOCAGES, COMPOSITIONS, AND USES THEREOF” (North Carolina State University, priority 2015, published 2019).

B1: NC-0: DNA NC variant with 0 nucleotides complementary to the sgRNA (nucleic acid)
DNA: GAGAAACGAGTGCGGTCACAGCTAAGCTAGATGCATCTAGCAAGCGCCGCCACTGATTTCACCGCTTCAAGCTAGATGCATCTAGCAAT
modifications: DNA nanoclew made by rolling circle amplification of circularized template, further chemistry not given here; the letters are possibly those of the target site
notes: DNA NC variant with 0 nucleotides complementary to the sgRNA
B2: NC-23: DNA NC variant with 23 nucleotides complementary to the sgRNA (nucleic acid)
DNA: GGGCACGGGCAGCTTGCCGGTGGAAGCTAGATGCATCTAGCAAGCGCCGCCACTGATTTCACCGCTTCAAGCTAGATGCATCTAGCAAT
modifications: DNA nanoclew made by rolling circle amplification of circularized template, further chemistry not given here; the letters are possibly those of the target site
notes: DNA NC variant with 23 nucleotides complementary to the sgRNA
B3: NC-12: DNA nanoclew encoding 12 nucleotides complementary to the 5′ end of the sgRNA (nucleic acid)
DNA: GCTACCGGGCAGCTTGCATCAATAAGCTAGATGCATCTAGCAAGCGCCGCCACTGATTTCACCGCTTCAAGCTAGATGCATCTAGCAAT
modifications: Rolling circle amplification template for DNA nanoclew, further chemistry not given here; the letters are possibly those of the target site
notes: DNA nanoclew encoding 12 nucleotides complementary to the 5′ end of the sgRNA

What was measured:
U2OS.EGFP cells = assay: Determination of endocytosis pathways in U2OS.EGFP cells; format: cell-based, human; details: MCD 3 mM, AMI 1 mM, flow cytometry
Description: U2OS.EGFP cells were seeded in 24-well plates (˜25000 cells/well) and cultured for 2 d. Then the cells were pre-incubated with several endocytosis inhibitors^[19b], such as chlorpromazine (CPZ, 10 μM) for clathrin-mediated endocytosis, nystatin (NYS, 25 μg/mL) for caveolin-mediated endocytosis, methyl-β-cyclodextrin (MCD, 3 mM) for lipid raft and amiloride (AMI, 1 mM) for macropinocytosis, for 1 h at 37° C., respectively. Afterwards, the cells were incubated with AF647-Cas9/sgRNA/NC/PEI for another 2 h in the presence of the inhibitors. Cells were then washed, trypsinized and resuspended in full serum medium, intracellular AF647 fluorescence intensities were analyzed by flow cytometry.

MCF-7 cells = assay: Determination of endocytosis pathways in MCF-7 cells; format: cell-based, human; details: CPZ 10 μM, AMI 1 mM, DOX 2 μM, 2 h
Description: MCF-7 cells were seeded in 6-well plates (1×10^4 cells per well) and culture for 48 h. […] Then the cells were incubated with DOX/FA-NCl/NCa at DOX concentration of 2 μM or FA-NCI/AF488-NCa of the same concentration in the presence of the inhibitors for another 2 h. After washing the cells by 4° C. PBS twice, the cells were lysed with Pierce IP lysis buffer (Thermo Scientific) and centrifuged. Fluorescence of DOX and AF488 and protein concentration in the supernatant were measured, respectively, by a microplate reader (Infinite […], Tecan).

[1] = Stability of DNA NC incubated with Cas9/sgRNA (agarose gel); format: physicochemical; details: Cas9/sgRNA 24 h
Description: The DNA NCs were prepared by RCA using cyclized single stranded DNA (ssDNA) templates. 5′ phosphorylated linear ssDNA templates (FIG. 21) were cyclized by CircLigase II ssDNA ligase (Epicentre) following manufacture's instructions. Unligated ssDNA chains were removed with 1 U Exo I (NEB) at 37° C. for 45 min followed by heat inactivation at 80° C. for 15 min. The cyclized ssDNA template (10 pmol) was added into 1 mL 1× isothermal amplification buffer (NEB) together with 0.5 μM primer and 200 μM dNTP and heated to 95° C. for 5 min. After hybridizing the template and primer by cooling the mixture to room temperature, Bst 2.0 DNA polymerase (0.2 U/μL) was added to initiate the RCA. The RCA was performed at 65° C. overnight and the denatured polymerase after the reaction was removed by centrifugation at 14,000×g for 2 min. […] The synthesized DNA NCs were analyzed by 0.8% agarose gel electrophoresis and Nanodrop 2000C (Thermal Scientific) was applied to measure the concentration and purity of the DNA NC. […] Zeta potential and particle size of NC were measured with a Zetasizer (Malvern). To image the NC by atomic force microscopy (AFM), the NC was dropped and dried onto a silicon wafer (Ted Pella) and analyzed on a Nanoscope AFM instrument (Veeco, Santa Barbara, Calif.) using tapping mode in ambient air.

[2] = tested on: EGFP gene in U2OS.EGFP cells; assay: EGFP gene disruption assay in U2OS.EGFP cells (fluorescence microscopy, flow cytometry); format: cell-based, human; details: NC-23, NC-12, NC-0 coated with PEI; different Cas9/sgRNA molar ratios
Description: The reporter cell line U2OS.EGFP with a single copy of destabilized EGFP gene integrated into the genome was a generous gift from Dr. J Keith Joung at Massachusetts General Hospital.^[6b] The cells were cultured in a 37° C. incubator under 5% CO2 and 90% humidity with full serum medium: Dulbecco's Modified Eagle's Medium supplemented with 10% (v/v) FBS, 2 mM GlutaMAX (Life Technologies), penicillin (100 U/mL) and streptomycin (100 μg/mL). U2OS.EGFP cells were seeded into 24-well plates (˜25,000 cells per well) one day before the transfection. […] Two days after the delivery, the cells were analyzed using a fluorescent microscope (IX71, Olympus). For the flow cytometry analysis, the cells were washed with ice cold PBS twice and trypsinized with 0.05% trypsin (Mediatech) at 37° C. for 1-2 min. Afterwards, the cells were washed and resuspended in full serum medium and analyzed by a BD Accuri C6 flow cytometer (BD Biosciences).

Molecule	effect of endocytosis inhibitor on uptake of Cas9/sgRNA/NC-12/PEI (AF647-Cas9) (U2OS.EGFP cells)	effect of endocytosis inhibitor on internalization of DOX/FA-NCl/NCa (MCF-7 cells)	resistance of DNA NC to Cas9/sgRNA degradation [1]	also measured
N=C(N)NC(=O)c1nc(Cl)c(N)nc1N [amiloride]	greatest reduction in Cas9 uptake	pronounced effects in inhibiting the internalization	–	–
CN(C)CCCN1c2ccccc2Sc2ccc(Cl)cc21 [chlorpromazine]	–	pronounced effects in inhibiting the internalization	–	–
methyl-β-cyclodextrin	greatest reduction in Cas9 uptake	–	–	–
B1	–	–	resistant to Cas9/sgRNA degradation	–
B2	–	–	resistant to Cas9/sgRNA degradation	–
B3	–	–	–	fraction of EGFP negative cells among DNA NC variants [2]: highest fraction of EGFP negative cells
